Results from patent US11078245B2, “Colon and pancreas cancer peptidomimetics” (PRECISION BIOLOGICS, INC., priority 2010, dated 2021).
Entries after “also recorded” stand apart in the source; their conditions may differ. Ends that are not written are not given here.

Columns and labels:
NPC-1C antigen = test: 4-1-4C12-KLH competitive ELISA; format: binding
Description: (§1) An exemplary NPC-1 antigen peptidomimetic, 4-1-4C12 (SEQ ID NO: 5) was conjugated to KLH (Keyhole Limpit Hemocyannin) (“4-1-4-C12-KLH”). […] Further, 4-1-4C12-KLH blocks NPC-1 binding to NPC-1C antigen specifically in competitive ELISA. After confirming the function of 4-1-4C12-KLH, 4-1-4C12-KLH was injected into rabbits. The immunized serum after third injection was tested by binding ELISA to check the function of 4-1-4C12-KLH induced antibody. The plate was coated with 4-1-4C12 peptide or CFPAC1 sup, diluted serum was added to the washed and blocked the plate. Bound rabbit IgG was detected by donkey anti-rabbit IgG-HRP.

NEO-101 antibody [1] = test: 4-1-4-C12-KLH binding ELISA
4-1-4C12 peptide = test: Rabbit immunization, serum binding ELISA; format: in vivo, rabbits; settings: rabbit serum after third injection
Description: as §1

CFPAC1 sup = biological target: T1, CFPAC1 sup (Homo sapiens, UniProt P98088); test: Rabbit immunization, serum binding ELISA; format: in vivo, rabbits; settings: rabbit serum after third injection
T1 construct: endogenous in cells; host or cells: CFPAC-1 (human pancreatic tumor cell line); cells or serum-free conditioned medium
Description: as §1

[2] = system: CFPAC1 culture supernatant; test: Peptide competition ELISA on CFPAC1 culture supernatant-coated plates; format: binding, human
Source text: FIG. 15A is a bar graph showing the percent blocking of NEO-101 by peptides (identified by biopanning an M13 phage library) on CFPAC1 culture supernatant-coated plates. FIG. 15B is a bar graph of OD values showing blocking of NEO-101 by peptides (identified by biopanning an M13 phage library) on CFPAC1 culture supernatant-coated plates.
Next, the inhibition of NEO-101 beads binding to CFAC1 Cells (rosetted cells) by peptides 4-1-4C12 and 4-1-4C12-R2 was investigated, as shown in FIG. 14A. FIG. 14B was the results from positive control with 4B6 in competitive beads assay. […] Therefore, the peptide 4-1-4-C12 is a peptidomimetic of the NPC-1 epitope and may be used to elicit a NPC-1 specific antibodies.

CFPAC1 cells = test: NEO-101-coupled Dynal beads rosette assay; format: cell-based, human; settings: for Positive rosette cells (%): Dynal beads coupled with NEO-101, premixed with M13 clone
Description: The M13 clones identified by the biopanning were also immunoassayed using magnetic beads. Aliquots of 5 μl M13 phage (10^11/10 μl) were mixed with 10 μl NEO-101-coupled Dynal® beads at RT for 20 min on a rotator. CFPAC1 cells (30 μl of 10^6 cells/ml) were added and incubated at 4° C. for 30 min. Rosetted cells were counted (>8 beads/cell).

Colon Ag = test: ELISA of NEO-101 binding inhibition by peptides against Colon Ag; design: species or system human
Description: An ELISA analysis of the NEO-101 binding inhibition by peptide 4-1-3-C9 and 4-1-4-C12 against Colon Ag was conducted. Aliquots of 100 μl/well Colon Ag (3 μg/ml in CBS buffer) in 96 well plate were incubated at 4° C. overnight, and the wells washed three times with TBST (0.05% Tween). The wells were blocked with 200 μl of 1% milk at RT for 1 hour. A pre-mix of NEO-101-biotin and test peptide was added at 100 μl/well and incubated at RT of 1 hour, followed by three washes with TBST. Streptavidin-HRP (100 μl of 1:2000 dilution) was added and the reaction incubated at RT for 1 hour, and the wells washed three time. TMB was added, and the wells were read at 450 nm. The control was NEO-101-biotin.

NEO-101 = test: Biotinylated peptide binding ELISA; settings: biotinylated peptide on NEO-101 coated plate
Description: To solve the poor binding of peptides to 96 well plate, peptides were biotinylated using EZ-link micro NHS Biotinylation kit (Pierce Cat #21955), and labeling efficiency checked by dot blot (50%). The biotinylated peptide binding was analyzed in ELISA by adding 100 μl/well of NEO-101 (1 μg/ml) in CBS buffer to 96 well plate and incubating at 4° C. overnight, followed by three washes with TBST (0.05% Tween). The solution was blocked with 200μ/of 1% milk in TBS at RT for 20 min. Aliquots of 100 μl peptide-biotin ([…]) in 0.1% milk-TBS were added, and incubated at RT of 2 hr, followed by three washes with TBST. Streptavidin-HRP (100 μl of 1:2000 diluted in 1:10 diluted blocking buffer) was added, and the wells incubated at RT for 1 hr, followed by three washed. TMB was then added, and the wells were read at 450 nm. Positive controls for NPC-1C binding used 4B6-biotin. The results are shown in FIG. 11, which indicates biotinylated peptides bind to NPC-1C coated plate.

NEO-101 antibody [3] = test: Immunofluorescence of 293T cells transfected with MUC5AC truncation constructs; format: cell-based; settings: 2 μg/ml NEO-101 antibody
Description: Six truncation constructs were made representing C-terminal truncations of the full-length MUC5AC protein (SEQ ID NO: 36).
293T cells were cultured on FBS coated cover slips for 24 hours. Cells were transiently transfected with 2 μg of MUC5AC constructs of Table 8 with LIPOFECTAMINE®. Cells were grown for about 72 hours, fixed with about 4% PFA in PBS, washed with PBS, permeabilized with about 0.2% […] in PBS and washed with PBS. Cells were then blocked with about 1% BSA in PBS, and about 2 μg/ml NEO-101 antibody was added to sample wells and about 2 μg/ml of an Isotype control was added for 1 hour at room temp. Cells were washed with PBS and second anti human-FITC antibody (1:500) was added to all wells and to the second antibody control wells. Cells were washed and mounted on slides with DAPI hard mount. Cover slides were allowed to sit over night at about 4° C. Slides were visualized with a Nikon Eclipse Ti microscope with an Andor camera. At least 3 random fields were counted per transfection.

| competition against bound CFPAC1 antigen with NEO-101 binding [2] | Blocking of NEO-101 antibody binding to colon Ag (Colon Ag) | NEO-101 binding (NEO-101) | Molecule | blocking of NEO-101-coupled beads binding to CFPAC1 cells (CFPAC1 cells) | Positive rosette cells (%) (CFPAC1 cells) | Binds NPC-1? (NEO-101 antibody [3]) | further results |
| --- | --- | --- | --- | --- | --- | --- | --- |
|  |  |  | 4-1-4-C12-KLH: 4-1-4C12 (SEQ ID NO: 5) conjugated to KLH (Keyhole Limpit Hemocyannin) (SLPDDWFRYINY; also: conjugated to KLH (keyhole limpet hemocyanin)) |  |  |  | blocking of NPC-1 binding to NPC-1C antigen (NPC-1C antigen): blocks; binding to NEO-101 antibody (NEO-101 antibody [1]): binds to NEO-101 antibody; immunized serum binding to 4-1-4C12 peptide (4-1-4C12 peptide): binds to 4-1-4C12; also recorded: dose dependent manner; immunized serum binding to CFPAC1 supernatant (CFPAC1 sup): bind to CFPAC1 human pancreatic cell line supernatant; also recorded: dose dependent manner |
| significant competition |  |  | SLPDDWFRYINYSLPDDWFRYINY (NPC-1 epitope peptidomimetic) [Peptide 4-1-4C12-R2] |  |  |  |  |
| significant competition | Yes | Yes | YSHSFPEDYFRYTNQKGGGS (NPC-1 epitope peptidomimetic) [Peptide 4-1-3-C9] | blocked | 0 |  |  |
|  | No | No | YSHSVHAIEDNWSPRGGGGS (NPC-1 epitope peptidomimetic) [Peptide 4-1-3-C11, reference compound] |  | 38 |  |  |
|  |  |  | YSHSWHTLPEKSLDENGGGS (NPC-1 epitope peptidomimetic) [Peptide 4-1-2-C5] | blocked | 0 |  |  |
|  | No | Yes | YSHSWHTLPESGEVTSGGGS (NPC-1 epitope peptidomimetic) [Peptide 4-1-3-C8] | blocked | 0 |  |  |
|  |  |  | 1-136 (protein, MUC5AC truncation construct (136)) ATMSVGRRKLALLWALALALACTTTHSQPVTRDCHLRCTWTKWFDVDFPSPGPHGGDKETYNNIIRSGEKICRRPEEITRLQCRAESHPEVSIEHLGQVVQCSREEGLVCRNQDQQGPFKMCLNYEVRVLCCETPK |  |  | No |  |
|  |  |  | 1-187 (protein, MUC5AC truncation construct (187)) ATMSVGRRKLALLWALALALACTTTHSQPVTRDCHLRCTWTKWFDVDFPSPGPHGGDKETYNNIIRSGEKICRRPEEITRLQCRAESHPEVSIEHLGQVVQCSREEGLVCRNQDQQGPFKMCLNYEVRVLCCETPKGCPVTSTPVTAPSTPSGRATSPTQSTSSWQKSRTTTLVTTSTTSTPQTSTT |  |  | Yes |  |
|  |  |  | 1-151 (protein, MUC5AC truncation construct (151)) ATMSVGRRKLALLWALALALACTTTHSQPVTRDCHLRCTWTKWFDVDFPSPGPHGGDKETYNNIIRSGEKICRRPEEITRLQCRAESHPEVSIEHLGQVVQCSREEGLVCRNQDQQGPFKMCLNYEVRVLCCETPKGCPVTSTPVTAPSTP |  |  | Yes |  |

| Molecule | competition against bound CFPAC1 antigen with NEO-101 binding [2] | Blocking of NEO-101 antibody binding to colon Ag (Colon Ag) | NEO-101 binding (NEO-101) | blocking of NEO-101-coupled beads binding to CFPAC1 cells (CFPAC1 cells) | Positive rosette cells (%) (CFPAC1 cells) | Binds NPC-1? (NEO-101 antibody [3]) | further results |
| --- | --- | --- | --- | --- | --- | --- | --- |
| YSHSSLPDDWFRYINYGGGS (NPC-1 epitope peptidomimetic) [Peptide 4-1-4-C12] | higher inhibition in low concentration comparing with 4-1-3C9 | Yes | Yes | blocked | 0 |  |  |
